Test results as given in patent US11576866B2, “Gastric residence systems for sustained delivery of adamantane-class drugs” (Lyndra Therapeutics, Inc., priority 2016, dated 2023).

Columns and labels:
[1] = human; input parameter of simulation; cited from earlier work
[2] = dog, one compartment model; assumed input of the analysis; cited from earlier work
[3] = cited from earlier work
[4] = PCL/SGF partition coefficient; format: physicochemical; conditions: 5:1 PCL diol (MW 530):ethyl acetate vs FaSSGF
Description: Partitioning behavior of an adamantane-class drug can be measured between a polycaprolactone phase (PCL phase) and a simulated gastric fluid phase (SGF phase), to give the partition coefficient PPCL-SGF between the two phases. Log PPCL-SGF can also be calculated. A 5:1 mixture of polycaprolactone diol (MW 530):ethyl acetate can be used as the PCL phase, and fasted-state simulated gastric fluid (FaSSGF) can be used as the SGF phase, such that PPCL-SGF=(concentration in polycaprolactone diol)/(concentration in FaSSGF)).
Partitioning of active pharmaceutical ingredient (API), such as an adamantane-class drug such as memantine, between the structural polymer, polycaprolactone (PCL), and fasted state simulated gastric fluid (FaSSGF) is of interest for predicting API release rate from PCL-based formulations. To measure the PCL-SGF partition coefficient of an API, a concentrated stock solution of API was added to a mixture of 1 mL FaSSGF and 1 mL of 5:1 PCL diol (MW 530):ethyl acetate. The sample was vortexed and centrifuged at 10000 rpm for 5 minutes. The SGF phase was analyzed by HPLC to measure drug concentration. The PCL phase was diluted in methanol prior to quantification on HPLC.

[5] = Thermal stability of memantine during hot melt processing; format: physicochemical; conditions: blended with polymer (20% drug, 2% P407, 20% Eudragit RS, PCL); up to 160° C. for up to 20 minutes
Procedure: The stability of memantine under conditions of hot melt processing was tested. The formulation used for hot melt processing was 20% drug, 0.5% SiO2, 0.5% alpha tocopherol, 2% P407, 20% Eudragit RS, with the balance of material made up of PCL.

[6] = Therapeutic plasma concentrations of memantine (literature); format: in vivo; conditions: conversion of 1 micromolar
Procedure: The maximum therapeutically relevant concentration of memantine is approximately 1 micromolar (Rammes et al., Curr. Neuropharmacol. 6(1): 55-78 (2008)), corresponding to a plasma level of about 180 ng/mL. A recommended therapeutic range is about 90 ng/mL to 150 ng/mL, while the laboratory alert value is 300 ng/mL (Hiemke et al., Pharmacopsychiatry 44:195 (2011)).

CC12CC3CC(C)(C1)CC(N)(C3)C2 [memantine]
clearance (CL) [1]: 5.2 L/h
mean volume of distribution [1]: 9 to 11 L/kg
rate of absorption (Ka) [1]: 0.21 h⁻¹
elimination rate constant (ke) [2]: 0.076 h⁻¹
laboratory alert value (plasma) ([3]; Hiemke et al. 2011): 300 ng/mL
maximum therapeutically relevant concentration ([3]; Rammes et al. 2008): approximately 1 micromolar
PCL/SGF Partition Coefficient [4]: 0.28
degradation during hot melt processing [5]: without significant degradation
plasma level corresponding to maximum therapeutically relevant concentration [6]: about 180 ng/mL
